# Reference: patent US10596234B2, “Compositions and methods to inhibit viral replication” (priority 2016, dated 2020)
# Assays:
# RIG-I = target: T1, RIG-I (Homo sapiens, UniProt O95786, D580E); test: In vitro deamidation assay (RIG-I); format: biochemical; conditions: protein purified from E. coli, 2-DGE
# T1 construct: made in house; host or cells: GST-RIG-I: transfected 293T cells; UL37: E. coli
# T1 sequence (O95786 1-925 D580E): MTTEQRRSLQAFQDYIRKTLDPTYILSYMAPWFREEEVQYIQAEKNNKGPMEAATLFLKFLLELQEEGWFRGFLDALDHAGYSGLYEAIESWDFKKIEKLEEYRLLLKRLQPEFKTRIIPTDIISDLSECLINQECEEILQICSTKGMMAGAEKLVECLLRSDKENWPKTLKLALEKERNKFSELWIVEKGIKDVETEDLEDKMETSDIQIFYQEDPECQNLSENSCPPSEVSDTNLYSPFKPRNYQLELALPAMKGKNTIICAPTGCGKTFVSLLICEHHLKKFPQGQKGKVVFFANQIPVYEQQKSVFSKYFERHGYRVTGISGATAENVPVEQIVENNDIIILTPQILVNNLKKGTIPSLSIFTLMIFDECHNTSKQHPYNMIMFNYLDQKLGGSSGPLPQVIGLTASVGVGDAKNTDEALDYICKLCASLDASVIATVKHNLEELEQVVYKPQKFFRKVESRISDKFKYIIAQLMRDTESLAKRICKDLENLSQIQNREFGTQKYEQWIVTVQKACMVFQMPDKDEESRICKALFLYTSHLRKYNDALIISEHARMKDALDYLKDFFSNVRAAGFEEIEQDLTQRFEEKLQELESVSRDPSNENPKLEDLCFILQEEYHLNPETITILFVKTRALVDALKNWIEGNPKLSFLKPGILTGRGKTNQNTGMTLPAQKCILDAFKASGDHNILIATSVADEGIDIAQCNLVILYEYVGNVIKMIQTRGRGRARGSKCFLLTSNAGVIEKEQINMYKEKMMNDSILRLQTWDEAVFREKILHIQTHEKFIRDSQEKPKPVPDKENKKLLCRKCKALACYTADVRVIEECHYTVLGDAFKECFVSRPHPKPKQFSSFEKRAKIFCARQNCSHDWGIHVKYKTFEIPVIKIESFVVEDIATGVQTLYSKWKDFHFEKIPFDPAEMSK
# Description: GST-RIG-I was purified from transfected 293T cells to homogeneity as determined by silver staining. In vitro on-column deamidation of RIG-I was performed as previously reported (He et al., 2015). Briefly, ˜0.2 μg of His-tagged UL37/UL37 (571-1123) expressed and purified from E. coli, and 0.6 μg of GST-RIG-I (bound to glutathione-conjugated agarose) were added to a total volume of 30 μl. The reaction was carried out at 30° C. for 45 min in deamidation buffer (50 mM Tris-HCl, pH 7.5, 100 mM NaCl, 5 mM MgCl2). Protein-bound GST beads were washed with deamidation buffer and GST-RIG-I was eluted with rehydration buffer (6 M Urea, 2 M Thio-urea, 2% CHAPS, 0.5% IPG Buffer, 0.002% bromophenol blue) at room temperature. Samples were then analyzed by two-dimensional gel electrophoresis and immunoblotting.
# cGAS [1] = test: In vitro deamidation assay (cGAS); format: biochemical, mouse; conditions: purified proteins
# Description: The in vitro deamidation assay was performed as previously described. Briefly, 5 μg of purified MBP-mcGAS or MBP-mcGAS-DDEE mutant on amylose resin was incubated with 0.5 gig of purified FLAG-UL37 or FLAG-UL37C819S at 30° C. for 45 min in deamidation buffer (50 mM Tris-HCl [pH 7.5], 100 mM NaCl, and 5 mM MgCl2). Then the reaction was stopped by adding rehydration buffer and the eluted proteins were analyzed by two-dimensional gel electrophoresis.
# cGAS [2] = target: T2, cGAS (Mus musculus, UniProt Q8C6L5); test: In vitro cGAMP activity assay; format: biochemical; conditions: in vitro cGAMP reaction
# T2 construct: Purified mcGAS(141-507) was deamidated by purified FLAG-UL37 in vitro; made in house; host or cells: E. coli BL21 (DE3)
# T2 sequence (Q8C6L5 141-507): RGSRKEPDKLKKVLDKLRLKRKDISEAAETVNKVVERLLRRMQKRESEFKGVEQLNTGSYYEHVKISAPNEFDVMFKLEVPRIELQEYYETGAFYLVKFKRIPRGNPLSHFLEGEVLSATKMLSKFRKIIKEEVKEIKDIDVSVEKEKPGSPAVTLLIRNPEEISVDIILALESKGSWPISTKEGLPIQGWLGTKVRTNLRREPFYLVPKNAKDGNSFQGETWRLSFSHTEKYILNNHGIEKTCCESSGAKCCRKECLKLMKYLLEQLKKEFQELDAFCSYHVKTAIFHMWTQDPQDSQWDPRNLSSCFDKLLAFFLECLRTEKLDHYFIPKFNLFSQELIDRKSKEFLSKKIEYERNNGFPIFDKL
# Description: 1 μM of MBP-cGAS or mutant proteins was mixed with 100 μM ATP and 100 μM GTP and 10 μCi [α-P32]-ATP in reaction buffer (20 mM Tris-Cl [pH 7.5], 150 mM NaCl, 5 mM MgCl2, 1 mM dithiothreitol [DTT]). After 2 h of incubation at 37° C., 2 μl of reaction solution was spotted onto PEI-Cellulose thin layer chromatography plate (Sigma). Reaction products were resolved with running buffer (1 M (NH4)2SO4, 1.5 M KH2PO4, pH 3.8). The TLC plates were dried and scanned with Phosphoimager (Fuji).
# cGAS [3] = test: Real-time PCR in THP-1 cells stably expressing UL37, transfected with HT-DNA; format: cell-based, human
# Description: THP-1 or L929 cells were infected with HSV-1 (MOI=5) or stimulated with HT-DNA (2 μg/ml) or cGAMP (2 μg/ml) for 6 h unless specifically indicated otherwise. Cells were washed with cold PBS, and total RNA was extracted by using TRIzol Reagent (Invitrogen). RNA was digested with DNase I (New England Biolabs) to remove genomic DNA. One microgram of total RNA was used for reverse transcription with PrimeScript Reverse Transcriptase (Clontech) according to the manufacturer's instruction. Approximately 0.5% of the cDNA was used as template in each quantitative real-time PCR (qRT-PCR) reaction with SYBR master mix (Applied biosystems).
# Lentivirus production was carried out in 293T cells as described previously. THP-1 or L929 cells were infected with lentivirus containing UL37 or UL37 C819S mutant. After 36 h, THP-1 cells were selected with puromycin at 1 μg/ml and L929 cells were selected with puromycin at 5 μg/ml.
# cGAS [4] = test: cGAMP reporter assay (THP1-Lucia); format: cell-based, human; conditions: THP-1 cells transfected with HT-DNA (HT-DNA alone approximately 60 ng)
# Description: THP-1 Cells were transfected with HT-DNA (2 μg/ml) or infected with HSV-1 virus for 6 h. Cell extracts were prepared by heating at 95° C. for 5 min to denature most proteins, and then the precipitated proteins were removed by centrifugation. The supernatant containing cGAMP was delivered to digitonin-permeabilized (2.5 μg/ml for 30 min) THP1-Lucia cells at 37° C. for 30 min. The cells were cultured for another 20 h before Lucia reporter activity was measured according to the manufacturer's instruction (InvivoGen). Pure cGAMP was diluted and used as standard for the assay.
# cGAS [5] = test: Tandem mass spectrometry quantification of cGAS deamidation; format: biochemical, mouse; conditions: UL37 expression; N196, N377, Q436, Q439
# Description: Purified mcGAS(141-507) was deamidated by purified FLAG-UL37 in vitro. Then the samples were resolved with SDS-PAGE and the mcGAS bands were excised and applied to LC/MS/MS analysis. The analysis of samples was carried out using a Thermo Scientific Q-Exactive hybrid Quadrupole-Orbitrap Mass Spectrometer and a Thermo Dionex UltiMate 3000 RSLCnano System. Peptide mixtures from each sample were loaded onto a peptide trap cartridge at a flow rate of 5 μL/min. The trapped peptides were eluted onto a reversed-phase PicoFrit column (New Objective, Woburn, Mass.) using a linear gradient of acetonitrile (3-36%) in 0.1% formic acid. The elution duration was 120 min at a flow rate of 0.3 μl/min. Eluted peptides from the PicoFrit column were ionized and sprayed into the mass spectrometer, using a Nanospray Flex Ion Source ES071 (Thermo) under the following settings: spray voltage, 2.0 kV, Capillary temperature, 250° C. Other settings were empirically determined. Raw data files were searched against mouse protein sequence database obtained from NCBI website using the Proteome Discoverer 1.4 software (Thermo, San Jose, Calif.) based on the SEQUEST algorithm. Carbamidomethylation (+57.021 Da) of cysteines was fixed modification, and Oxidation and Deamidation Q/N-deamidated (+0.98402 Da) were set as dynamic modifications. The minimum peptide length was specified to be five amino acids. […]
# IFN-β = IFN-β ELISA, 293T cells stably expressing UL37 infected with Sendai virus; format: cell-based, human; conditions: UL37 expression, SeV infection, 16 hpi
# Description: Commercial cytokine ELISA kits used in this study include: human IFN-β (PBL Assay Science) and human RANTES (R&D Systems). Cytokine levels in the supernatant from cultured cells were assessed according to manufacturer's instruction. Absorbance was determined with FLUOstar Omega (BMG Labtech.).
# [6] = test system: interferon-stimulating DNA (ISD); test: Precipitation of biotinylated interferon-stimulating DNA (ISD) with cGAS; format: binding
substance,measurement,setting,value
"UL37: HSV-1 UL37 tegument protein, a protein deamidase; SEQ ID NO. 1",RIG-I deamidation in vitro,RIG-I,sufficient to reduce RIG-I charge
same,cGAS deamidation in vitro (2DGE shift),cGAS [1],shifted cGAS toward the positive end of the gel strip
same,effect of added UL37 on cGAS-mediated cGAMP production,cGAS [2],greatly reduced cGAS-mediated cGAMP production
same,reduction of IFNB1 and ISG56 expression,"cGAS [3]; THP-1 cells, HT-DNA transfection, UL37 expression",~60%
same,"effect on expression of IFNB1, ISG56 and CXCL10 induced by HT-DNA",cGAS [3]; THP-1 stable cell lines,"potently reduced the expression of IFNB1, ISG56 and CXCL10"
same,intracellular cGAMP,cGAS [4],~35 ng per one million THP-1 cells
same,increase of deamidation of the four cGAS sites,cGAS [5],2-3 fold
same,reduction of IFN-β secretion,IFN-β,~75%
same,increase of the interaction between cGAS and ISD,[6],~50%
